Measured values from US4347319A, “Microbiological epoxidation process” (priority 1980, dated 1982).

What was measured:
[1] = tested on: Methylocystis parvus (CRL 18 PM4) NRRL B-11,204; experiment: Oxidation by washed cell suspensions of methane-grown cells; assay type: cell-based; settings: methane-grown washed cells, 30° C.; methane to methanol, alkene to 1,2-epoxide
In short: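 Cells grown 2 days at 30 °C under methane/air 1:1 (pH 7.0 medium), washed and resuspended in 0.15 M phosphate pH 7.0. Suspension (2 mg cells) incubated at 30 °C, 300 rpm under substrate/O2 1:1 (liquid substrates 10 μl); products measured periodically by GC with flame ionization detection.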

[2] = tested on: cell-free particulate fractions derived from the methylotrophic microorganisms; experiment: Inhibition of conversion of C3 -C6 n-alkanes to sec. alcohols; assay type: biochemical; settings: oxygen and NADH present
Description: The conditions for preparing the cell suspensions or the cell-free particulate fractions from methane-grown methylotroph microorganisms is the same as described above.

[3] = tested on: methane-grown strain Methylococcus capsulatus NRRL B-11,219; experiment: Effect of methane on the epoxidation of propylene by a cell suspension; assay type: cell-based; settings: in the presence of methane
Description: Both the epoxidation of the C2 -C4 1-alkenes and the hydroxylation of methane with the cell suspensions were inhibited by various metal-binding and metal-chelating agents, indicating the involvement of metal(s)-containing enzyme system(s). […] The epoxidation of propylene to propylene oxide by a cell suspension of methane-grown strain Methylococcus capsulatus NRRL B-11,219 was inhibited (50%) in the presence of the hydroxylation substrate, methane (Table XV). […] It is likely that the methane mono-oxygenase enzyme system catalyzes both the epoxidation of alkene and the hydroxylation of methane. May and Abbott publications, supra, have reported that the ω-hydroxylation system from Pseudomonas oleovorans catalyzed both the epoxidation of 1-octene and the hydroxylation of n-octane.

[4] = tested on: methylotrophic microorganism strains of the present invention grown on methanol; experiment: Comparative test with methanol-grown washed cell suspensions; assay type: cell-based
[5] = tested on: Hansenula polymorpha ATCC 26012; experiment: Oxidation of sec-alcohols to ketones by cell suspensions of yeasts; assay type: cell-based; settings: sec-alcohol to methyl ketone
[6] = tested on: cell extract of Kloeckera sp. strain A2 NRRL-Y-11,420; experiment: Oxidation of secondary alcohols to methylketone by cell extracts of yeasts; assay type: biochemical
[7] = tested on: Torulopsis sp. Strain A1 (NRRLY-11,419); experiment: Oxidation of sec-alcohols to ketones by cell suspensions of yeasts; assay type: cell-based; settings: sec-alcohol to methyl ketone
Pichia sp. NRRL-Y-11328 = experiment: as above; assay type: cell-based; settings: sec-alcohol to methyl ketone
[8] = tested on: Methylococcus capsulatus CRL 25 NRRL B-11,221; experiment: Sec. alcohol oxidation by cell suspensions of methanol-grown cells; assay type: cell-based; settings: sec. alcohol to methyl ketone
[9] = tested on: Methylobacter vinelandii CRL M5Y NRRL B-11,218; experiment: as above; assay type: cell-based; settings: sec. alcohol to methyl ketone
[10] = tested on: Methylomonas methanica CRL M4P NRRL B-11,205; experiment: as above; assay type: cell-based; settings: sec. alcohol to methyl ketone
[11] = tested on: Methylobacter chroococcum CRL M6 NRRL B-11,214; experiment: as above; assay type: cell-based; settings: sec. alcohol to methyl ketone
[12] = tested on: Methylocystis parvus CRL 18 NRRL B-11,204; experiment: as above; assay type: cell-based; settings: sec. alcohol to methyl ketone
[13] = tested on: Methylobacterium organophilum CRL 26 NRRL B-11,222; experiment: as above; assay type: cell-based; settings: sec. alcohol to methyl ketone
[14] = tested on: Methylococcus capsulatus CRL M1 NRRL B-11,219; experiment: as above; assay type: cell-based; settings: sec. alcohol to methyl ketone
[15] = tested on: Methylosinus trichosporium CRL 15 NRRL B-11,202; experiment: as above; assay type: cell-based; settings: sec. alcohol to methyl ketone
[16] = tested on: Methylobacter bovis CRL 19 NRRL B-11,217; experiment: as above; assay type: cell-based; settings: sec. alcohol to methyl ketone
[17] = tested on: Methylomonas streptobacterium CRL 17 PM3 NRRL B-11,208; experiment: as above; assay type: cell-based; settings: sec. alcohol to methyl ketone
[18] = tested on: purified secondary alcohol dehydrogenase from Pichia sp. NRRL Y-11,328; experiment: Substrate specificity, electron acceptor and stoichiometry of purified yeast SADH; assay type: biochemical; settings: examined spectrophotometrically

SMILES: C=CC [Propylene]
- Oxidative Conversion Rates [1]: 1.5 μmole/hr/mg protein
- inhibition of conversion of n-alkanes to sec. alcohols [2]: inhibited

SMILES: C [Methane]
- inhibition of the epoxidation of propylene to propylene oxide [3]: 50%
- hydroxylation / epoxidation ability [4]: did not possess the ability

SMILES: CCC(C)O (centres unmarked) [2-Butanol]
- Conversion Rate ([5]; growth substrate Ethanol): 4.8 μmoles/hr/mg of protein
- Conversion Rate ([5]; growth substrate Methanol): 5.8 μmoles/hr/mg of protein
- Conversion Rate ([5]; growth substrate Methylamine): 4.5 μmoles/hr/mg of protein
- Conversion Rate ([5]; growth substrate Methylformate): 5.2 μmoles/hr/mg of protein
- Conversion Rate ([5]; growth substrate Propylamine): 4.0 μmoles/hr/mg of protein
- specific activities ([6]; 2-butanol as a substrate, spectrophotometrically): 90 nmoles NAD^+ reduced per min. per mg. protein
- Conversion Rate ([6]; methanol-grown, cell extract + NAD^+, sec. alcohol to methyl ketone, gas chromatography): 5.9 μmoles/hr/mg Protein
- Conversion Rate ([7]; growth substrate Ethanol): 4.7 μmoles/hr/mg of protein
- Conversion Rate ([7]; growth substrate Methanol): 4.9 μmoles/hr/mg of protein
- Conversion Rate ([7]; growth substrate Methylamine): 4.5 μmoles/hr/mg of protein
- Conversion Rate ([7]; growth substrate Methylformate): 4.9 μmoles/hr/mg of protein
- Conversion Rate ([7]; growth substrate Propylamine): 3.8 μmoles/hr/mg of protein
- Conversion Rate (Pichia sp. NRRL-Y-11328; growth substrate Ethanol): 6.2 μmoles/hr/mg of protein
- Conversion Rate (Pichia sp. NRRL-Y-11328; growth substrate Methanol): 6.8 μmoles/hr/mg of protein
- Conversion Rate (Pichia sp. NRRL-Y-11328; growth substrate Methylamine): 5.1 μmoles/hr/mg of protein
- Conversion Rate (Pichia sp. NRRL-Y-11328; growth substrate Methylformate): 6.9 μmoles/hr/mg of protein
- Conversion Rate (Pichia sp. NRRL-Y-11328; growth substrate Propylamine): 2.1 μmoles/hr/mg of protein
- Conversion Rates [8]: 0.95 μmoles/hr/mg protein
- Conversion Rates [9]: 2.0 μmoles/hr/mg protein
- Conversion Rates [10]: 2.5 μmoles/hr/mg protein
- Conversion Rates [11]: 1.4 μmoles/hr/mg protein
- Conversion Rates [12]: 1.0 μmoles/hr/mg protein
- Conversion Rates [13]: 2.5 μmoles/hr/mg protein
- Conversion Rates [14]: 2.0 μmoles/hr/mg protein
- Conversion Rates [15]: 4.5 μmoles/hr/mg protein
- Conversion Rates [16]: 1.8 μmoles/hr/mg protein
- Conversion Rates [17]: 2.0 μmoles/hr/mg protein
- oxidation by the purified enzyme [18]: catalyzed the oxidation
